# Earlier results in patent US20070026077A1 (priority 2003, published 2007).
# Columns and labels:
# [1] = white crystalline light powder
# [2] = system: small-cell lung carcinoma; conditions: patients with small-cell lung carcinoma
SMILES,hygroscopicity [1],bound to plasmatic proteins (plasmatic proteins),survival time [2],tumor disease progression [2]
"CC(=O)CC(c1ccccc1)c1c([O-])c2ccccc2oc1=O.[Na+] (stereo not drawn) [warfarin sodium salt, sodium salt of 3-(α-acetonylbenzyl)-4-hydroxy-coumarin]",hygroscopic,,,
CC(=O)CC(c1ccccc1)c1c(O)c2ccccc2oc1=O (stereo not shown) [warfarin],,About 97%,prolongation of survival time,statistically significant retardation of tumor disease progression
